Results as given in patent publication US12371428B2 (Exelixis, Inc., priority 2019, dated 2025).
pIC50: −log10 of the molar value.

Assays:
[1] = target: Human Met (residues R974-S1390 with A1209G and V1290L) (Homo sapiens, UniProt P08581); experiment: Human Met kinase assay, 33P-phosphoryl transfer radiometric (Example D-1, KinaseProfiler); type: biochemical; details: protocol of Example D-1 (compounds 21-27, 41-47, 99, 104); read-out: c-Met IC50
Description: Kinase activity and compound inhibition were investigated using the ^33P-Phosphoryl transfer radiometric kinase assay, performed using the KinaseProfiler™ service of Eurofins Pharma Discovery Services UK Limited. Dose-response experiments were performed using nine compound concentrations in a 96-well microtiter plate. For each assay, all compounds were prepared to a 50× final assay concentration (50 μM) in 100% DMSO, then diluted in a half-log series, with the final top concentration at 1 μM. This working stock of the compound was added to the assay well as the first component in the reaction, followed by the remaining components as detailed in the following assay protocols below. The positive control wells (100% kinase activity) contain all components of the reaction including 2% DMSO (control for solvent effects), except the compound of interest. Blank wells contain all components of the reaction, with the reference inhibitor, staurosporine. This reference compound was used to abolish kinase activity and generated the 0% kinase activity base-line. IC50 values were calculated by nonlinear regression analysis using the sigmoidal dose-response (variable slope) curve fit on XLFit version 5.3 (ID Business Solutions).
Example D-1: Human Met (residues R974-S1390 with A1209G and V1290L, 3.4 nM) was incubated with 8 mM MOPS pH 7.0, 0.2 mM EDTA, 250 µM […] (SEQ ID NO:3), 1 mM sodium orthovanadate, 5 mM […], 10 mM magnesium acetate, and 10 μM [γ-^33P-ATP]. The reaction was initiated by the addition of the Mg/ATP mix. After incubation for 40 minutes at room temperature, the reaction was stopped by the addition of phosphoric acid to a concentration of 0.5%. A reaction aliquot of 10 μL was then spotted onto a P30 filtermat and washed four times for 4 minutes in 0.425% phosphoric acid and once in methanol prior to drying and scintillation counting. Incorporated ^33P was measured using the Wallac Microbeta scintillation counter (Perkin Elmer).

[2] = target: AXL (phospho-AXL, Gas6-stimulated A-172 glioblastoma cells) (Homo sapiens (Human), UniProt P30530); experiment: AXL autophosphorylation ELISA in A-172 cells (Example E); type: cell-based; details: cellular activity; AXL autophosphorylation ELISA in A-172 cells; read-out: Axl IC50
AXL (phospho-AXL, Gas6-stimulated A-172 glioblastoma cells), sequence (P30530 26-894): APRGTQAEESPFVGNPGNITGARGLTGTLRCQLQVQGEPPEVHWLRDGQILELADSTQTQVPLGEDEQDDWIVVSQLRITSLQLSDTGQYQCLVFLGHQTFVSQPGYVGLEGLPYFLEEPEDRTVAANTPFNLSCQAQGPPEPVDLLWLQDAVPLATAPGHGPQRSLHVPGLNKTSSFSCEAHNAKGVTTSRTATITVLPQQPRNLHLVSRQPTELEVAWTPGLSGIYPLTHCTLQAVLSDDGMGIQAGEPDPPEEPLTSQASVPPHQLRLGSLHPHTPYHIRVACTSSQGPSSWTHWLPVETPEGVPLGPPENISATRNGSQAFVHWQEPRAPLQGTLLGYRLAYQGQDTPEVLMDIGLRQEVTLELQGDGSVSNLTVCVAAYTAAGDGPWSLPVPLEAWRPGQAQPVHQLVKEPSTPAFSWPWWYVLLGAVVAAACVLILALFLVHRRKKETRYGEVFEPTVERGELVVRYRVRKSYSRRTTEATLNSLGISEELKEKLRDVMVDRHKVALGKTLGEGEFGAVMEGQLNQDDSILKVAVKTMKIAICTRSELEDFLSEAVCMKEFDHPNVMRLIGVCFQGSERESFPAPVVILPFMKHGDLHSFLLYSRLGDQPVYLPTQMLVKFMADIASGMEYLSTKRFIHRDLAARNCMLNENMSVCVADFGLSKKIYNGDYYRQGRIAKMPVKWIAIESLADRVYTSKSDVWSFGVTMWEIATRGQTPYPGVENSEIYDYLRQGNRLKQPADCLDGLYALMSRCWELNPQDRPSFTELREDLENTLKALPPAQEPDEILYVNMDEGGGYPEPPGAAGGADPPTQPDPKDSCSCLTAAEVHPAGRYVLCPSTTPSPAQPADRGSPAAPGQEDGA
Outline: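 Phospho-AXL in lysates was quantified by ELISA, normalised to DMSO (100%) and reference inhibitor (0%) controls. IC50 by 4-parameter logistic fit.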

[3] = target: Human AXL (residues 464-885) (Homo sapiens (Human), UniProt P30530); experiment: Human AXL kinase assay, HTRF KinEase (Example A-2); type: biochemical
Human AXL (residues 464-885), sequence (P30530 473-894): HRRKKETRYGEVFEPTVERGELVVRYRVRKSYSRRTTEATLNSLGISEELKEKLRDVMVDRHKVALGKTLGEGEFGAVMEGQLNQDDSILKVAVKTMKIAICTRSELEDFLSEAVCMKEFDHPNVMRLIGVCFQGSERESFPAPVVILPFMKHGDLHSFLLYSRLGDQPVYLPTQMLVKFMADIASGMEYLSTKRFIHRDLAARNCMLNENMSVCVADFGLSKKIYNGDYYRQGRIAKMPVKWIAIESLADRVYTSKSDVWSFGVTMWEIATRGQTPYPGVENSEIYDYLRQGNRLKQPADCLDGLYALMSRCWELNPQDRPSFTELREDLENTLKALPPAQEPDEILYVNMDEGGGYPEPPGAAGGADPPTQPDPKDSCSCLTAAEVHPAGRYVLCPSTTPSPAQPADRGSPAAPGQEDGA
Description: Kinase activity and compound inhibition were also investigated using the HTRF® KinEase assay (Cisbio Cat #62TKOPEB) per manufacturer's instructions. In short, compounds were delivered in 300 nL volumes at 10 different concentrations in DMSO (3% final) to empty 384-well assay plates (Corning cat #3824). A mixture of enzyme, […] biotynlated peptide substrate, and buffer in 10 μL volume was added. The assay was started upon the addition of ATP (at Km). The 10 μL reaction was incubated at room temperature. The reaction was stopped upon the addition of detection buffer containing streptavidin-XL665 ([…]) and TK antibody-Eu3+(5 L).
Kinase activity normalized to DMSO (100% activity) and reference compound at […] and (0% activity) was calculated using the fluorescence ratio […]. IC50 values were calculated by nonlinear regression analysis using a 4-parameter logistic curve fit in ActivityBase XE (IDBS).
The mixture was added to the pre-plated compounds. […] The reaction was incubated at room temperature for 50 min and stopped upon the addition of SA-XL665 and TK-antibody both diluted in EDTA-containing kinase detection buffer (Cisbio). The kinase activity was calculated as stated above and the IC50 values were reported.

[4] = protocol of Example A-2 (other compounds)

Human Met (residues R974-S1390 with A1209G and V1290L), sequence (P08581 25-1390 limits assumed, stated change not applied): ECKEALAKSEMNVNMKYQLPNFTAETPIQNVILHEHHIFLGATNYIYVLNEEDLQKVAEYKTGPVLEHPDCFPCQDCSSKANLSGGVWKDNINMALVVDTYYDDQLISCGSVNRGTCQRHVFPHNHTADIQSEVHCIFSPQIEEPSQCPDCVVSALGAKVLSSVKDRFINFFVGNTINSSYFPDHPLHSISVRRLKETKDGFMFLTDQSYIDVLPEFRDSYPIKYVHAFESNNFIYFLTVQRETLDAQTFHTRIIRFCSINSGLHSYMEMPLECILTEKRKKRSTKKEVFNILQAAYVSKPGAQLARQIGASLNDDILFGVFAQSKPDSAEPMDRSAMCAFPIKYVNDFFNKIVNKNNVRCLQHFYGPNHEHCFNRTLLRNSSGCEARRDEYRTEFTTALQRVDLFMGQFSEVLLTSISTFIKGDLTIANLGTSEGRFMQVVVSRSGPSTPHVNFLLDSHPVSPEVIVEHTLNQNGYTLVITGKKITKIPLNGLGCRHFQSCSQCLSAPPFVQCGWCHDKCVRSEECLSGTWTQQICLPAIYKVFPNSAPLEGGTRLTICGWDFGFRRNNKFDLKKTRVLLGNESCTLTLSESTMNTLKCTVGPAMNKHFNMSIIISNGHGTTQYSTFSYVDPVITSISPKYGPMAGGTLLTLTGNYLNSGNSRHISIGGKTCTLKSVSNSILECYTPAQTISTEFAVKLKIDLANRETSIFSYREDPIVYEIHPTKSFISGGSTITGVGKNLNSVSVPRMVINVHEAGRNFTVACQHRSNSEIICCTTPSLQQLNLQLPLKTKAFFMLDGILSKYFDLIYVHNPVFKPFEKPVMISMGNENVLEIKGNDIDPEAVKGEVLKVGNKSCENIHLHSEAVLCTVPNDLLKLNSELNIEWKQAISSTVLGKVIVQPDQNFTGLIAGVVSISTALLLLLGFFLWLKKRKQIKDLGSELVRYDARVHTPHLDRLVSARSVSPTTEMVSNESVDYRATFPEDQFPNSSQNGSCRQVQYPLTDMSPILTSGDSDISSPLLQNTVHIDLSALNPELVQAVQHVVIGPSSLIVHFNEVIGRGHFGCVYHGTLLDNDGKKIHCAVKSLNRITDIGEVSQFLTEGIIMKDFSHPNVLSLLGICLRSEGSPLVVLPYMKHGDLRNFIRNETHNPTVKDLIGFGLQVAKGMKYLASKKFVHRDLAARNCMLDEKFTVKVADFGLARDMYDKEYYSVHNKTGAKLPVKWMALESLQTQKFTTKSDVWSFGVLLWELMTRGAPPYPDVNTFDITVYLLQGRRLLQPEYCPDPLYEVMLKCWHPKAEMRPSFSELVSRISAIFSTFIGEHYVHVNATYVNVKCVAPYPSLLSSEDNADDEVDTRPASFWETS

pIC50 [1] | pIC50 [2] | Structure (SMILES) | other results
> 7.00 | – | COc1cc2nccc(Oc3ccc(NC(=O)c4cn(C)cc(-c5ccc(F)cc5)c4=O)cc3F)c2nc1OC [Compound 45, N-[4-[(6,7-Dimethoxy-1,5-naphthyridin-4-yl)oxy]-3-fluorophenyl]-5-(4-fluorophenyl)-1-methyl-4-oxopyridine-3-carboxamide] | –
> 7.00 | – | COc1cc2nccc(Oc3ccc(NC(=O)c4cn(C5CCCC5)cc(-c5ccc(F)cc5)c4=O)cc3F)c2nc1OC [Compound 46, 1-Cyclopentyl-N-[4-[(6,7-dimethoxy-1,5-naphthyridin-4-yl)oxy]-3-fluorophenyl]-5-(4-fluorophenyl)-4-oxopyridine-3-carboxamide] | –
> 7.00 | – | COc1cc2nccc(Oc3ccc(NC(=O)c4cn(C5CCCC5)c(C)c(-c5ccc(F)c(Cl)c5)c4=O)cc3F)c2nc1OC [Compound 27, 5-(3-Chloro-4-fluorophenyl)-1-cyclopentyl-N-[4-[(6,7-dimethoxy-1,5-naphthyridin-4-yl)oxy]-3-fluorophenyl]-6-methyl-4-oxopyridine-3-carboxamide] | –
> 7.00 | – | COc1cc2nccc(Oc3ccc(NC(=O)c4cn(C(C)C)c(C)c(-c5ccc(F)cc5)c4=O)cc3F)c2nc1OC [Compound 21, N-[4-[(6,7-Dimethoxy-1,5-naphthyridin-4-yl)oxy]-3-fluorophenyl]-5-(4-fluorophenyl)-6-methyl-4-oxo-1-propan-2-ylpyridine-3-carboxamide] | –
> 7.00 | – | COc1cc2nccc(Oc3ccc(NC(=O)c4cn(C(C)C)c(C)c(-c5ccc(Cl)c(Cl)c5)c4=O)cc3F)c2nc1OC [Compound 25, 5-(3,4-Dichlorophenyl)-N-[4-[(6,7-dimethoxy-1,5-naphthyridin-4-yl)oxy]-3-fluorophenyl]-6-methyl-4-oxo-1-propan-2-ylpyridine-3-carboxamide] | –
> 7.00 | – | COc1cc2nccc(Oc3ccc(NC(=O)c4cn(C5CCCC5)c(C)c(-c5ccc(F)cc5)c4=O)cc3F)c2nc1OC [Compound 26] | –
– | > 7.00 | COc1cc2nccc(Oc3ccc(NC(=O)c4cn(CC(F)(F)F)c(C)c(-c5ccc(F)cc5)c4=O)cc3)c2cc1OC [Compound 260, N-[4-(6,7-Dimethoxyquinolin-4-yl)oxyphenyl]-5-(4-fluorophenyl)-6-methyl-4-oxo-1-(2,2,2-trifluoroethyl)pyridine-3-carboxamide] | pIC50 [3, 4]: > 7.00
– | > 7.00 | COCCOc1ccc2nccc(Oc3ccc(NC(=O)c4cnc(C)c(-c5ccc(F)cc5)c4O)cc3F)c2n1 [Compound 348, N-[3-fluoro-4-[[6-(2-methoxyethoxy)-1,5-naphthyridin-4-yl]oxy]phenyl]-5-(4-fluorophenyl)-4-hydroxy-6-methylpyridine-3-carboxamide] | pIC50 [3, 4]: > 7.00
> 7.00 | – | COc1cc2nccc(Oc3ccc(NC(=O)c4cn(C(C)C)cc(-c5ccc(F)cc5)c4=O)cc3F)c2cc1OC [Compound 43, N-[4-(6,7-Dimethoxyquinolin-4-yl)oxy-3-fluorophenyl]-5-(4-fluorophenyl)-4-oxo-1-propan-2-ylpyridine-3-carboxamide] | –
> 7.00 | – | COc1cc2nccc(Oc3ccc(NC(=O)c4cn(C(C)C)c(C)c(-c5ccc(Cl)c(Cl)c5)c4=O)cc3F)c2cc1OC [Compound 23, 5-(3,4-Dichlorophenyl)-N-[4-(6,7-dimethoxyquinolin-4-yl)oxy-3-fluorophenyl]-6-methyl-4-oxo-1-propan-2-ylpyridine-3-carboxamide] | –
– | > 7.00 | COCCOc1ccc2nccc(Oc3ccc(NC(=O)c4c(C)nc(C)c(-c5ccc(F)cc5)c4O)cc3F)c2n1 [Compound 349, N-[3-fluoro-4-[[6-(2-methoxyethoxy)-1,5-naphthyridin-4-yl]oxy]phenyl]-5-(4-fluorophenyl)-4-hydroxy-2,6-dimethylpyridine-3-carboxamide] | pIC50 [3, 4]: > 7.00
> 7.00 | – | COc1cc2nccc(Oc3ccc(NC(=O)c4cn(C5COC5)cc(-c5ccc(F)cc5)c4=O)cc3F)c2nc1OC [Compound 47, N-[4-[(6,7-Dimethoxy-1,5-naphthyridin-4-yl)oxy]-3-fluorophenyl]-5-(4-fluorophenyl)-1-(oxetan-3-yl)-4-oxopyridine-3-carboxamide] | –
– | > 7.00 | COc1cc2nccc(Oc3ccc(NC(=O)c4c(C)nc(C)c(-c5ccc(F)cc5)c4O)cc3F)c2nc1OC [Compound 154, N-[4-[(6,7-Dimethoxy-1,5-naphthyridin-4-yl)oxy]-3-fluorophenyl]-5-(4-fluorophenyl)-4-hydroxy-2,6-dimethylpyridine-3-carboxamide] | pIC50 [3, 4]: > 7.00
– | > 7.00 | C=C(C)c1cnc2c(Oc3ccc(NC(=O)c4c(C)cc(C)n(-c5ccc(F)cc5)c4=O)cc3F)ccnc2c1 [Compound 457, 1-(4-fluorophenyl)-N-[3-fluoro-4-[(7-prop-1-en-2-yl-1,5-naphthyridin-4-yl)oxy]phenyl]-4,6-dimethyl-2-oxopyridine-3-carboxamide] | pIC50 ([3]; protocol of Example A-2): > 7.00
– | > 7.00 | CNc1nccc2c(Oc3ccc(NC(=O)c4cnc(C)n(-c5ccc(F)cc5)c4=O)cc3)ccnc12 [Compound 543, 1-(4-fluorophenyl)-2-methyl-N-[4-[[8-(methylamino)-1,7-naphthyridin-4-yl)oxy]phenyl]-6-oxopyrimidine-5-carboxamide] | pIC50 ([3]; protocol of Example A-2): > 7.00
> 7.00 | – | COc1cc2nccc(Oc3ccc(NC(=O)c4cn(C(C)C)c(C)c(-c5ccc(F)cc5)c4=O)cc3F)c2cc1OC [Compound 22, N-[4-(6,7-Dimethoxyquinolin-4-yl)oxy-3-fluorophenyl]-5-(4-fluorophenyl)-6-methyl-4-oxo-1-propan-2-ylpyridine-3-carboxamide] | –
> 7.00 | – | COc1cc2nccc(Oc3ccc(NC(=O)c4cncc(-c5ccc(F)cc5)c4O)cc3F)c2nc1OC [Compound 42, N-[4-[(6,7-Dimethoxy-1,5-naphthyridin-4-yl)oxy]-3-fluorophenyl]-5-(4-fluorophenyl)-4-hydroxypyridine-3-carboxamide] | –
> 7.00 | – | COc1cc2nccc(Oc3ccc(NC(=O)c4cn(C(C)C)cc(-c5ccc(F)cc5)c4=O)cc3F)c2nc1OC [Compound 44, N-[4-[(6,7-Dimethoxy-1,5-naphthyridin-4-yl)oxy]-3-fluorophenyl]-5-(4-fluorophenyl)-4-oxo-1-propan-2-ylpyridine-3-carboxamide] | –
> 7.00 | – | CNc1ncc(C(=O)Nc2ccc(Oc3ccnc4cc(OC)c(OC)nc34)c(F)c2)c(=O)n1-c1ccc(F)cc1 [Compound 99, N-[4-[(6,7-Dimethoxy-1,5-naphthyridin-4-yl)oxy]-3-fluorophenyl]-1-(4-fluorophenyl)-2-(methylamino)-6-oxopyrimidine-5-carboxamide] | –
> 7.00 | – | COc1cc2nccc(Oc3ccc(NC(=O)c4cn(C5CC5)cc(-c5ccc(F)cc5)c4=O)cc3F)c2nc1OC [Compound 41, 1-Cyclopropyl-N-[4-[(6,7-dimethoxy-1,5-naphthyridin-4-yl)oxy]-3-fluorophenyl]-5-(4-fluorophenyl)-4-oxopyridine-3-carboxamide] | –
> 7.00 | – | COc1cc2nccc(Oc3ccc(NC(=O)c4cn(C(C)C)c(C)c(-c5ccc(F)c(Cl)c5)c4=O)cc3F)c2nc1OC [Compound 24, 5-(3-Chloro-4-fluorophenyl)-N-[4-[(6,7-dimethoxy-1,5-naphthyridin-4-yl)oxy]-3-fluorophenyl]-6-methyl-4-oxo-1-propan-2-ylpyridine-3-carboxamide] | –
– | > 7.00 | COc1cc2nccc(Oc3ccc(NC(=O)c4cnc(SC(C)C)n(-c5ccc(F)cc5)c4=O)cc3)c2cc1OC [Compound 539, N-[4-(6,7-dimethoxyquinolin-4-yl)oxyphenyl]-1-(4-fluorophenyl)-6-oxo-2-propan-2-ylsulfanylpyrimidine-5-carboxamide] | –
